pEC50, pIC50: −log10 of the molar value. Like-named read-outs stand apart in the source and are kept apart here. Values belong to the compound of their own block, whether it stands above or below them.
Assays:
IL-1β = test: THP-1 AlphaLISA IL-1β cytokine assay (differentiated THP-1 cells); assay type: cell-based
Description: (§1) Measuring Inhibitory Effects on IL-1V Cytokine and IL-6 Output from THP-1s
(§2) The cytokine inhibition profiles of compounds of formula (I) were determined in a differentiated THP-1 cell assay. All assays were performed in RPMI-1640 growth medium (Gibco), supplemented with 10% fetal bovine serum (FBS; Gibco), 1% penicillin-streptomycin and 1% sodium pyruvate unless specified otherwise. The IL-1β and IL-6 cytokine inhibition assays were run in a background of differentiated THP-1 cells as described below. All reagents described were from Sigma-Aldrich unless specified otherwise. Compounds were prepared as 10 mM DMSO stocks.
(§3) THP-1 cells were expanded as a suspension up to 80% confluence in appropriate growth medium. Cells were harvested, suspended, and treated with an appropriate concentration of phorbol 12-myristate 13-acetate (PMA) over a 72 hr period (37° C./5% CO2).
(§4) Following 72 hrs of THP-1 cell incubation, cellular medium was removed and replaced with fresh growth media containing 1% of FBS. Working concentrations of compounds were prepared separately in 10% FBS treated growth medium and pre-incubated with the cells for 30 minutes (37° C./5% CO2). Following the 30 minute compound pre-incubation, THP-1s were treated with an appropriate concentration of LPS and the THP-1s were subsequently incubated for a 24 hr period (37° C./5% CO2). An appropriate final concentration of Nigericin was then dispensed into the THP-1 plates and incubated for 1 hour (37° C./5% CO2) before THP-1 supernatants were harvested and collected in separate polypropylene 96-well holding plates.
(§5) Reagents from each of the IL-1β and IL-6 commercial kits (Perkin Elmer) were prepared and run according to the manufacturer's instructions. Subsequently, fluorescence signal detection in a microplate reader was measured (EnVision® Multilabel Reader, Perkin Elmer).
(§6) Percentage inhibition was calculated per cytokine by normalising the sample data to the high and low controls used within each plate (+/−LPS respectively).
(§7) Dimethyl itaconate and 4-octyl itaconate were included as comparator compounds.

[1] = Hepatocyte stability assay, human; assay type: in vitro ADME; conditions: human, hepatocytes, T½
Source text: (§8) Defrosted cryo-preserved hepatocytes (viability>70%) were used to determine the metabolic stability of a compound via calculation of intrinsic clearance (CIint; a measure of the removal of a compound from the liver in the absence of blood flow and cell binding). Clearance data are particularly important for in vitro work as they can be used in combination with in vivo data to predict the half-life and oral bioavailability of a drug.
(§9) The metabolic stability in hepatocytes assay involved a time-dependent reaction using both positive and negative controls. The cells must be pre-incubated at 37° C. then spiked with test compound (and positive control); samples taken at pre-determined time intervals were analysed to monitor the change in concentration of the initial drug compound over 60 minutes. A buffer incubation reaction (with no hepatocytes present) acted as a negative control and two cocktail solutions, containing compounds with known high and low clearance values (verapamil/7-hydroxycoumarin and propranolol/diltiazem), acted as positive controls. • 1. The assay was run with a cell concentration of 0.5×10^6 cells/mL in Leibovitz buffer. • 2. All compounds and controls were run in duplicate. • 3. Compound concentration was 10 μM. • 4. All compounds and controls were incubated with both cells and buffer to show turnover is due to hepatic metabolism. • 5. All wells on the incubation plate had 326.7 μL of either cells or buffer added. • 6. Prior to assay, cell and buffer-only incubation plates were preincubated for 10 mins at 37° C. • 7. The assay was initiated by adding compounds, 3.3 μL of 1 mM in 10% DMSO-90% Buffer; final DMSO concentration is 0.1%. • 8. Samples were taken at regular timepoints (0, 5, 10, 20, 40, 60 min) until 60 mins. • 9. Sample volume was 40 μL and added to 160 μL of crash solvent (acetonitrile with internal standard) and stored on ice. • 10. At the end of the assay, the crash plates were centrifuged at 3500 rpm for 20 mins at 4° C. • 11. 80 μL of clear supernatant was removed and mixed with 80 μL of deionised water before being analysed by LC-MS/MS.
(§10) Raw LC-MS/MS data were exported to, and analysed in, Microsoft Excel for determination of intrinsic clearance. The percentage remaining of a compound was monitored using the peak area of the initial concentration as 100%. Intrinsic clearance and half-life values were calculated using a graph of the natural log of percentage remaining versus the time of reaction in minutes.
(§11) 4-Octyl itaconate was included as a comparator compound.

[2] = test system: cryo-preserved hepatocytes; test: Hepatocyte stability assay, human; assay type: in vitro ADME
Source text: as §8, §9, §10, §11

[3] = Hepatocyte stability assay, mouse; assay type: in vitro ADME; conditions: mouse, hepatocytes, T½
Source text: as §8, §9, §10, §11

[4] = test system: cryo-preserved hepatocytes; test: Hepatocyte stability assay, mouse; assay type: in vitro ADME
Source text: as §8, §9, §10, §11

IL-6 = test: THP-1 AlphaLISA IL-6 cytokine assay (differentiated THP-1 cells); assay type: cell-based
Description: as §1, §2, §3, §4, §5, §6, §7

[5] = test system: NRF2 (nuclear factor erythroid 2-related factor 2); test: NRF2 +/-GSH activation assay (DiscoverX PathHunter NRF2 translocation kit, U2OS cells); assay type: cell-based; conditions: for Emax / pEC50: Homo sapiens; for Emax: U2OS; for pEC50: U2OS PathHunter cells, 6 hours
[6] = Homo sapiens, THP-1, differentiated THP-1 cells, LPS 24 hr then Nigericin 1 hour, read-out: IL-1β (IC50)
[7] = differentiated THP-1 cells, LPS 24 hr then Nigericin 1 hour, read-out: IL-1β (IC50)
[8] = differentiated THP-1 cells, LPS 24 hr then Nigericin 1 hour, read-out: IL-6 (IC50)
[9] = Homo sapiens, THP-1, differentiated THP-1 cells, footnote a: data from repeated experiments, read-out: IL-1β (IC50), data from repeated experiments
[10] = Homo sapiens, THP-1, differentiated THP-1 cells, LPS 24 hr then Nigericin 1 hour, read-out: IL-6 (IC50)
[11] = −GSH, normalised to dimethyl fumarate high control, read-out: NRF2 activation Emax, −GSH
[12] = −GSH, read-out: NRF2 activation EC50, −GSH
[13] = −GSH, normalised to dimethyl fumarate high control
[14] = Human hepatocytes, 10 μM compound, 60 min
[15] = Mouse hepatocytes, 10 μM compound, 60 min

pIC50 (IL-1β; [6]): 4.58 | pIC50 (IL-1β; [9]): 4.45 | pIC50 (IL-6; [10]): < 4.00
Structure (SMILES): C=C(CC(=O)N[C@@H](CO)c1ccc(C(F)(F)F)cc1)C(=O)O [Example 12, (R)-4-((2-hydroxy-1-(4-(trifluoromethyl)phenyl)ethyl)amino)-2-methylene-4-oxobutanoic acid]

pIC50 (IL-1β; [6]): 5.38 | half-life at 10 μM [1]: > 7.67 h | Clint ([2]; human, hepatocytes): <3 μL min^−1 10^−6 cells | half-life at 10 μM [3]: 3.98 h | Clint ([4]; mouse, hepatocytes): 6 μL min^−1 10^−6 cells
Structure (SMILES): CC(C)/C=C(\CC(=O)N[C@@H](C)c1ccc(C(F)(F)F)cc1)C(=O)O [Example 44, (S,E)-4-methyl-2-(2-oxo-2-((1-(4-(trifluoromethyl)phenyl)ethyl)amino)ethyl)pent-2-enoic acid]

pIC50 (IL-1β; [6]): 4.60 | pIC50 (IL-6; [10]): < 4.00
Structure (SMILES): C=C(CC(=O)NCc1ccc(C(F)(F)F)cc1)C(=O)O [Example 6, 2-methylene-4-oxo-4-((4-(trifluoromethyl)benzyl)amino)butanoic acid]

pIC50 (IL-1β; [6]): 4.25 | pIC50 (IL-6; [10]): < 4.50
Structure (SMILES): C=C(CC(=O)N[C@@H](C)c1ccc(C(F)F)cc1)C(=O)O [Example 18, (S)-4-((1-(4-(difluoromethyl)phenyl)ethyl)amino)-2-methylene-4-oxobutanoic acid]

pIC50 (IL-1β; [6]): < 4.00 | pIC50 (IL-6; [10]): 4.00 | pEC50 [5, 12]: 4.67
Structure (SMILES): C=C(CC(=O)OC)C(=O)OC [dimethyl itaconate, Dimethyl itaconate, reference compound]
Emax [5, 11]: 137% | NRF2 activation Emax, −GSH [5, 13]: 137%

pIC50 (IL-1β; [6]): 5.41 | pIC50 (IL-6; [10]): < 4.00 | pEC50 ([5]; +GSH, read-out: NRF2 activation EC50, +GSH): < 4.00 | pEC50 [5, 12]: 4.80 | half-life at 10 μM [3]: 0.367 h | Clint ([4]; mouse, hepatocytes): 61 μL min^−1 10^−6 cells
Structure (SMILES): C=C(CC(=O)N[C@@H](C)c1ccc(C(F)(F)F)cn1)C(=O)OC1CN(C(C)=O)C1 [Example 36, 1-acetylazetidin-3-yl (S)-2-methylene-4-oxo-4-((1-(5-(trifluoromethyl)pyridin-2-yl)ethyl)amino)butanoate]
Emax ([5]; +GSH, normalised to dimethyl fumarate high control, read-out: NRF2 activation Emax, +GSH): 25% | Emax [5, 11]: 65%

pIC50 (IL-1β; [7]): 4.87 | pIC50 (IL-6; [8]): < 4.00 | Clint ([2]; human, hepatocytes): <3 μL min^−1 10^−6 cells | T½ ([2]; human, hepatocytes, 10 μM): >7.67 h | Clint ([4]; mouse, hepatocytes): 4 μL min^−1 10^−6 cells | T½ ([4]; mouse, hepatocytes, 10 μM): 5.92 h
Structure (SMILES): C=C(CC(=O)NC(c1ccc(C(F)(F)F)cc1)C1CC1)C(=O)O (centres unmarked) [Example 23, 4-((cyclopropyl(4-(trifluoromethyl)phenyl)methyl)amino)-2-methylene-4-oxobutanoic acid]

pIC50 (IL-1β; [6]): 4.37 | pIC50 (IL-6; [10]): 4.92
Structure (SMILES): C=C(CC(=O)N[C@@H](C)c1ccc(C(F)(F)F)cn1)C(=O)OC1CCN(C(C)=O)CC1 [Example 35, 1-acetylpiperidin-4-yl (S)-2-methylene-4-oxo-4-((1-(5-(trifluoromethyl)pyridin-2-yl)ethyl)amino)butanoate]

pIC50 (IL-1β; [6]): 4.36 | pIC50 (IL-6; [10]): < 4.00
Structure (SMILES): C=C(CC(=O)N[C@@H](CC)c1ccc(C(F)(F)F)cc1)C(=O)O [Example 8, (S)-2-methylene-4-oxo-4-((1-(4-(trifluoromethyl)phenyl)propyl)amino)butanoic acid]

Further lines, the compound ahead of its results:

Structure (SMILES): C=C(CC(=O)N[C@@H](C)c1ccc(C(F)(F)F)cc1)C(=O)OCCNS(C)(=O)=O [Example 25, 2-(methylsulfonamido)ethyl (S)-2-methylene-4-oxo-4-((1-(4-(trifluoromethyl)phenyl)ethyl)amino)butanoate]
pIC50 (IL-1β; [6]): 5.39 | half-life at 10 μM [1]: 1.17 h | Clint ([2]; human, hepatocytes): 21 μL min^−1 10^−6 cells | half-life at 10 μM [3]: 0.183 h | Clint ([4]; mouse, hepatocytes): 153 μL min^−1 10^−6 cells

Structure (SMILES): C=C(C(=O)O)C(C)C(=O)N[C@@H](C)c1ccc(C(F)(F)F)cc1 (single isomer, unassigned; isomer 2) [Example 55]
pIC50 (IL-1β; [7]): 4.72 | pIC50 (IL-6; [8]): < 4.50 | Clint ([2]; human, hepatocytes): <3 μL min^−1 10^−6 cells | T½ ([2]; human, hepatocytes, 10 μM): >7.67 h | Clint ([4]; mouse, hepatocytes): 3 μL min^−1 10^−6 cells | T½ ([4]; mouse, hepatocytes, 10 μM): 7.62 h

Structure (SMILES): C=C(C(=O)O)C(C)C(=O)NC(C)(C)c1ccc(C(F)(F)F)cc1 (single isomer, unassigned; isomer 1) [Example 52, 3-methyl-2-methylene-4-oxo-4-((2-(4-(trifluoromethyl)phenyl)propan-2-yl)amino)butanoic acid ISOMER 1]
pIC50 (IL-1β; [7]): 4.73 | half-life at 10 μM [1]: > 7.67 h | Clint ([2]; human, hepatocytes): <3 μL min^−1 10^−6 cells | half-life at 10 μM [3]: 7.18 h | T½ ([4]; mouse, hepatocytes, 10 μM): >7.67 h

Structure (SMILES): C=C(C(=O)O)C(C)C(=O)NC(C)(C)c1ccc(C(F)(F)F)cc1 (centres unmarked) [Example 51, 3-methyl-2-methylene-4-oxo-4-((2-(4-(trifluoromethyl)phenyl)propan-2-yl)amino)butanoic acid]
pIC50 (IL-1β; Homo sapiens, THP-1, read-out: IL-1β (IC50)): 4.99 | pIC50 (IL-6; Homo sapiens, THP-1, read-out: IL-6 (IC50)): < 4.00 | half-life at 10 μM [1]: > 7.67 h | Clint ([2]; human, hepatocytes): <3 μL min^−1 10^−6 cells

Structure (SMILES): C=C(C(=O)O)C(C)C(=O)NC(C)(C)c1ccc(C(F)(F)F)cc1 (single isomer, unassigned) [Example 53, 3-methyl-2-methylene-4-oxo-4-((2-(4-(trifluoromethyl)phenyl)propan-2-yl)amino)butanoic acid]
pIC50 (IL-1β; [7]): 5.03 | pIC50 (IL-6; [10]): < 4.00 | Clint ([2]; human, hepatocytes): <3 μL min^−1 10^−6 cells | T½ ([2]; human, hepatocytes, 10 μM): >7.67 h | Clint ([4]; mouse, hepatocytes): 5 μL min^−1 10^−6 cells | T½ ([4]; mouse, hepatocytes, 10 μM): 4.78 h

Structure (SMILES): C=C(CC(=O)N[C@@H](C)c1ccc(Cl)cc1)C(=O)O [Example 15, (S)-4-((1-(4-chlorophenyl)ethyl)amino)-2-methylene-4-oxobutanoic acid]
pIC50 (IL-1β; [6]): 4.47 | pIC50 (IL-1β; [9]): 4.49 | pIC50 (IL-6; [10]): < 4.21

Structure (SMILES): C=C(CC(=O)N[C@@H](C)c1ccc(C(F)(F)F)nc1)C(=O)O [Example 38, (S)-2-methylene-4-oxo-4-((1-(6-(trifluoromethyl)pyridin-3-yl)ethyl)amino) butanoic acid]
pIC50 (IL-1β; [6]): 4.53 | pIC50 (IL-6; [10]): < 4.00

Structure (SMILES): C=C(CC(=O)OCCCCCCCC)C(=O)O [4-octyl itaconate, 4-Octyl itaconate, reference compound]
pIC50 (IL-1β; [7]): 4.42 | pIC50 (IL-6; [8]): 4.69 | NRF2 activation Emax, +GSH ([5]; +GSH, normalised to dimethyl fumarate high control): 148% | NRF2 activation Emax, −GSH [5, 13]: 165% | Clint [2, 14]: 401 μL min^−1 10^−6 cells | T½ [2, 14]: 0.067 h | Clint [4, 15]: 351 μL min^−1 10^−6 cells | T½ [4, 15]: 0.067 h

Source: US20240245691A1 (Sitryx Therapeutics Limited, priority 2021, published 2024)
